Measurements as given in ChEMBL document CHEMBL1201862, “PubChem BioAssay data set” (2004).
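A five-concentration, 48-hour dose response in 96-well plates underlies each endpoint, interpolated linearly between surrounding concentrations. GI50 = concentration required for 50% inhibition of growth.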 Activity calls are given as the source filed them. No stated cut-off is given here; in the data, active = GI50 up to about 1.1 µM and inactive = higher.

Tests used:
Assay in all cases: NCI-60 cell line screen, 48 h
ACHN = system: ACHN
CAKI-1 = system: CAKI-1
EKVX = system: EKVX
HCC 2998 = system: HCC 2998
HCT-116 = system: HCT-116
HL-60 = system: HL-60
IGROV-1 = system: IGROV-1
LOX IMVI = system: LOX IMVI
Malme-3M = system: Malme-3M
NCI-H226 = system: NCI-H226
OVCAR-3 = system: OVCAR-3
OVCAR-4 = system: OVCAR-4
RPMI-8226 = system: RPMI-8226
SF-268 = system: SF-268
SK-OV-3 = system: SK-OV-3
SN12C = system: SN12C
UO-31 = system: UO-31
RXF 393 = system: RXF 393

Measured: GI50

O=C(O)C1Cc2[nH]cnc2CN1 (stereo not given)
inactive: ACHN > 100 µM | CAKI-1 > 100 µM | EKVX > 100 µM | HCC 2998 > 100 µM | HCT-116 > 100 µM | HL-60 > 100 µM | IGROV-1 > 100 µM | LOX IMVI > 100 µM | Malme-3M > 100 µM | NCI-H226 > 100 µM | OVCAR-3 > 100 µM | OVCAR-4 > 100 µM | RPMI-8226 > 100 µM | SF-268 > 100 µM | SK-OV-3 > 100 µM | SN12C > 100 µM | UO-31 > 100 µM

CCOC(=O)/C(=C/c1ccc(C(F)(F)F)cc1)N(CC)CC
inactive: ACHN 42.1 µM | CAKI-1 58.6 µM | EKVX > 100 µM | HCC 2998 > 100 µM | HCT-116 40 µM | HL-60 > 100 µM | IGROV-1 47.8 µM | LOX IMVI > 100 µM | Malme-3M 57.5 µM | NCI-H226 48.4 µM | OVCAR-4 78.9 µM | RPMI-8226 > 100 µM | SF-268 72.3 µM | SK-OV-3 66.4 µM | SN12C 53.3 µM | UO-31 46.1 µM

C=CCc1cc(OC)c2c(c1)C(O)CC(c1ccccc1)O2 (stereo not given)
inactive: ACHN > 100 µM | CAKI-1 62.7 µM | EKVX > 100 µM | HCC 2998 > 100 µM | HCT-116 > 100 µM | HL-60 35.6 µM | IGROV-1 > 100 µM | Malme-3M > 100 µM | NCI-H226 > 100 µM | OVCAR-3 > 100 µM | OVCAR-4 > 100 µM | SF-268 > 100 µM | SK-OV-3 > 100 µM | SN12C > 100 µM | UO-31 > 100 µM

Sc1nnc(C(c2ccccc2)c2ccccc2)[nH]1
inactive: ACHN > 100 µM | EKVX > 100 µM | HCC 2998 > 100 µM | HCT-116 > 100 µM | HL-60 > 100 µM | IGROV-1 > 100 µM | LOX IMVI > 100 µM | Malme-3M > 100 µM | NCI-H226 > 100 µM | OVCAR-3 > 100 µM | RXF 393 > 100 µM | SF-268 > 100 µM | SK-OV-3 > 100 µM | SN12C > 100 µM | UO-31 > 100 µM

COc1ccc(N2C(=O)C3c4[nH]c5ccccc5c4C4CCCCCCC4C3C2=O)cc1 (stereo not given)
inactive: ACHN 6.38 µM | CAKI-1 17 µM | EKVX 14 µM | HCC 2998 11.2 µM | HCT-116 3.85 µM | HL-60 22.5 µM | IGROV-1 18.2 µM | LOX IMVI 5 µM | Malme-3M 16.6 µM | NCI-H226 12.4 µM | OVCAR-3 5.93 µM | OVCAR-4 15.9 µM | RPMI-8226 50.4 µM | SF-268 12.7 µM | SK-OV-3 14.4 µM | SN12C 4.79 µM | UO-31 17.4 µM

C/C(=N\OCC(O)CNC(C)C)c1ccc2c(c1)NC(=O)CS2 (stereo not given)
inactive: ACHN > 100 µM | EKVX > 100 µM | HCC 2998 > 100 µM | HCT-116 > 100 µM | LOX IMVI > 100 µM | Malme-3M > 100 µM | NCI-H226 > 100 µM | OVCAR-3 > 100 µM | OVCAR-4 > 100 µM | RXF 393 > 100 µM | SF-268 > 100 µM | SK-OV-3 > 100 µM | SN12C > 100 µM | UO-31 91.2 µM

CC(C)(O)[C@@H]1CC[C@@]2(C)CCC[C@H](O)[C@H]2C1
inactive: ACHN > 100 µM | CAKI-1 > 100 µM | HCC 2998 > 100 µM | HCT-116 > 100 µM | HL-60 > 100 µM | IGROV-1 > 100 µM | LOX IMVI > 100 µM | Malme-3M > 100 µM | NCI-H226 > 100 µM | OVCAR-3 > 100 µM | OVCAR-4 > 100 µM | RPMI-8226 > 100 µM | SF-268 > 100 µM | SK-OV-3 > 100 µM | SN12C > 100 µM | UO-31 > 100 µM

Cc1cn(Cc2ccccc2CCO)c(=S)[nH]c1=O
inactive: ACHN > 100 µM | CAKI-1 > 100 µM | EKVX > 100 µM | HL-60 > 100 µM | IGROV-1 > 100 µM | LOX IMVI > 100 µM | Malme-3M > 100 µM | NCI-H226 34.8 µM | OVCAR-3 > 100 µM | OVCAR-4 > 100 µM | RPMI-8226 > 100 µM | RXF 393 > 100 µM | SF-268 > 100 µM | SK-OV-3 > 100 µM | SN12C > 100 µM | UO-31 > 100 µM

COC(=O)C1CC/C(=N\c2cccc(C(F)(F)F)c2)N1 (stereo not given)
inactive: ACHN > 100 µM | CAKI-1 > 100 µM | EKVX > 100 µM | HCC 2998 > 100 µM | HCT-116 > 100 µM | HL-60 > 100 µM | IGROV-1 > 100 µM | LOX IMVI > 100 µM | Malme-3M > 100 µM | NCI-H226 > 100 µM | OVCAR-3 > 100 µM | OVCAR-4 > 100 µM | RPMI-8226 > 100 µM | SF-268 > 100 µM | SK-OV-3 > 100 µM | SN12C > 100 µM | UO-31 > 100 µM

CC(=O)OCC1OC(N2C(=O)C(=O)c3cc(C)ccc32)C(OC(C)=O)C(OC(C)=O)C1OC(C)=O (stereo not given)
inactive: ACHN 50.9 µM | CAKI-1 > 100 µM | EKVX > 100 µM | HCT-116 59.7 µM | HL-60 22.4 µM | IGROV-1 46 µM | LOX IMVI 17.1 µM | Malme-3M > 100 µM | NCI-H226 > 100 µM | OVCAR-3 99.3 µM | OVCAR-4 > 100 µM | RPMI-8226 29.4 µM | RXF 393 39.8 µM | SF-268 49.5 µM | SK-OV-3 > 100 µM | SN12C 65.6 µM | UO-31 > 100 µM

O=C(O)CCSC(=O)Nc1cccc(F)c1
inactive: ACHN > 100 µM | EKVX 3.55 µM | HCC 2998 > 100 µM | HL-60 23.3 µM | IGROV-1 > 10 µM | LOX IMVI > 100 µM | NCI-H226 > 100 µM | OVCAR-3 40.6 µM | RPMI-8226 > 100 µM | SF-268 24.3 µM | SN12C > 100 µM | UO-31 > 100 µM

O=C1C2C3CCC(C2C(=O)N1CO)C1C2C(=O)N(CO)C(=O)C2C31 (stereo not given)
inactive: ACHN > 44.1 µM | CAKI-1 > 96.6 µM | EKVX > 100 µM | HCT-116 28.2 µM | HL-60 12 µM | IGROV-1 > 76 µM | LOX IMVI 37.5 µM | Malme-3M > 100 µM | NCI-H226 > 81.7 µM | OVCAR-3 > 100 µM | OVCAR-4 > 43.9 µM | RPMI-8226 21.1 µM | RXF 393 > 46.9 µM | SF-268 > 53.5 µM | SK-OV-3 > 100 µM | SN12C > 47.2 µM | UO-31 > 100 µM

CC1=C2C(=O)O[C@@H](c3ccoc3)[C@]2(C)CCC1 [FRAXINELLONE]
inactive: ACHN > 100 µM | CAKI-1 > 100 µM | EKVX > 100 µM | HCC 2998 > 100 µM | HCT-116 > 100 µM | HL-60 > 100 µM | IGROV-1 > 100 µM | LOX IMVI > 100 µM | Malme-3M > 100 µM | NCI-H226 > 100 µM | OVCAR-3 > 100 µM | OVCAR-4 > 100 µM | RPMI-8226 > 100 µM | SF-268 > 100 µM | SK-OV-3 > 100 µM | UO-31 > 100 µM
